# Assays:
# Assay type in all cases: cell-based, human
# [1] = system: caspase-3; assay: Western blotting of caspase-3 (apoptosis) in salivary gland cells; conditions: salivary gland cells in Rock inhibitor-containing medium; relative to α-tubulin; FIG. 6A
# Description: Primary cultured salivary gland cells were cultured in a medium containing a Rock inhibitor and analyzed for their proliferation by Western blotting of proliferating cell nuclear antigen (PCNA: Santa Cruz) and for their apoptosis by Western blotting of caspase-3 (CST). For analysis of their immortalization, the expression of telomerase reverse transcriptase (TERT) was analyzed by quantitative RT-PCR assay.
# The protein levels of PCNA and caspase-3 were measured by Western blotting. In addition, α-tubulin was used as an endogenous control.
# (i) A protein extract was electrophoresed on a 4% to 12% polyacrylamide gel (Invitrogen).
# (ii) The proteins were transferred onto a nitrocellulose membrane (Invitrogen).
# (iii) The membrane was washed with Tris-buffered saline containing 0.1% Tween-20 (WaKo) (TBST), and then blocked with Blocking One (Nacalai Tesque, Inc., Japan) for 30 minutes. […]
# (vi) The membrane was reacted at room temperature for 1 hour with horseradish peroxidase (HRP)-conjugated secondary antibody (Promega) and then treated with Super Signal West Pico Chemiluminescent substrate (Thermo) to develop signals for visualization purposes. The intensity of signals was quantified with a CS analyzer (ATTO) and expressed as a relative value in comparison with the protein level of α-tubulin measured as a control.
# [2] = system: odontoma cells; assay: Cell culture of odontoma cells using a Rho kinase inhibitor (cell morphology); conditions: inhibitor-containing medium (10 μM); passage 5 with inhibitor vs passage 0 without; FIG. 11
# Description: (§1) Odontoma cells, oral mucosal epithelial cells, fibroblasts, and cancer-associated fibroblasts (CAFs) (i) Patient-derived cells for use as a source material were taken in a required amount as described above. (ii) The cells were washed three times with phosphate-buffered physiological saline (PBS) (supplemented with 10 units/ml of penicillin and 100 μg/ml of streptomycin: Sigma-Aldrich). (iii) The cells were cut into small pieces with sterilized iris scissors and a surgical knife (No. 11). (iv) After addition of trypsin (TrypLE Select Enzyme, Gibco, Code No. A12177-01), the cells were shaken at 37° C. for 30 minutes. (v) The cells were mixed with Dulbecco's modified Eagle medium (DMEM: Sigma-Aldrich) (supplemented with 10% fetal bovine serum: Nichirei Bioscience Inc., Japan, 10 units/ml of penicillin and 100 μg/ml of streptomycin), and centrifugation (at 1000 rpm for 5 minutes) was repeated three times. (vi) The cells were mixed with DMEM (supplemented with 10% fetal bovine serum, 10 units/ml of penicillin, 100 μg/ml of streptomycin, 10 μM of the Rock kinase inhibitor and 0.3 μM of L-ascorbic acid 2-phosphate: Sigma-Aldrich) (DMEM+) and then seeded into collagen type I-coated cell culture dishes (IWAKI). (vii) The cells were washed with PBS once every three days to replace the above medium. (viii) The cultured cells were subcultured at 80% confluency. […]
# [3] = system: vascular endothelial cells; assay: Cell culture of vascular endothelial cells using a Rho kinase inhibitor (cell morphology); conditions: inhibitor-containing medium (10 μM, EGM-2MV); passage 8 with inhibitor vs passage 0 without; FIG. 15
# Description: Vascular Endothelial Cells (i) Patient-derived cells for use as a source material were taken in a required amount as described above. (ii) The cells were washed three times with phosphate-buffered physiological saline (PBS) (supplemented with 10 units/ml of penicillin and 100 μg/ml of streptomycin: Sigma-Aldrich). (iii) The cells were cut into small pieces with sterilized iris scissors and a surgical knife (No. 11). (iv) The cells were added to collagenase (032-10534: Wako) and shaken at 37° C. for 60 minutes. (v) The cells were diluted with an equal volume of fetal bovine serum (Nichirei Bioscience Inc., Japan) and centrifuged (at 1000 rpm for 10 minutes), and then centrifuged (at 1000 rpm for 5 minutes) three times with PBS, followed by addition of MACS buffer and centrifugation (at 1000 rpm for 5 minutes). (vi) Magnetic beads (Dynabeads CD31 Endotherial cell, 11155D: Invitrogen) were used to separate the cells. (vii) The cells were mixed with EGM-2MV (Lonza) (supplemented with 20% fetal bovine serum, 10 units/ml of penicillin, 100 μg/ml of streptomycin, and 10 μM of the Rock kinase inhibitor) and then seeded into fibronectin-coated cell culture dishes (IWAKI). (viii) The cells were washed with PBS once every three days to replace the above medium. (ix) The cultured cells were subcultured at 80% confluency. […]
# [4] = system: cancer-associated fibroblasts (CAFs); assay: Cell culture of cancer-associated fibroblasts using a Rho kinase inhibitor (cell morphology); conditions: inhibitor-containing medium (10 μM); passage 7 with inhibitor vs passage 1 without; FIG. 14
# Description: as §1
structure (smiles),measurement,setting,value
"CC(N)[C@H]1CC[C@H](C(=O)Nc2ccncc2)CC1 (stereo partly drawn) [Rock inhibitor, (R)-(+)-trans-N-(4-pyridyl)-4-(1-aminoethyl)-cyclohexanecarboxamide]",caspase-3 expression,[1],no difference was observed
same,cell morphology of odontoma cells on repeated subculture,[2],maintain their cell morphology even when repeatedly subcultured
same,cell morphology of vascular endothelial cells on repeated subculture,[3],maintain their cell morphology even when repeatedly subcultured
same,cell morphology of cancer-associated fibroblasts on repeated subculture,[4],maintain their cell morphology even when repeatedly subcultured

# Source: patent US20170349879A1, “METHOD FOR CULTURING NORMAL CELLS AND ODONTOMA CELLS CONTAINED IN ORAL TISSUE” (CHIBA UNIVERSITY, priority 2014, published 2017)
